Our source for the IC50 values is patent US10280156B2, “Heteroaromatic chalcone derivatives and their medical use” (Medizinische Universität Wien, priority 2014, dated 2019).

Assay [1] concerns PBMC of chronic lymphocytic leukemia (CLL) patients. Description: Viability of primary CLL cells in suspension culture. Format: cell-based. The following applies: Homo sapiens, CLL cell, 48 h. An excerpt: (§1) Hematological cell lines were acquired from the Leibniz Institute DSMZ-German Collection of Microorganisms and Cell Cultures (www.dsmz.de). Sixteen patients diagnosed with chronic lymphocytic leukemia at the Division of Hematology and Hemostaseology at the Vienna General Hospital and four healthy donors were included in the study. All participants signed informed consent according to the Declaration of Helsinki (Ethics Committee Nr: EK 1722/2012). Peripheral blood mononuclear cells (PBMC) were isolated using standardized Ficoll-Hypaque gradient centrifugation (Seromed, Berlin, Germany) and stored in liquid nitrogen until use. […]
(§2) Primary cells were incubated at a density of 300,000 cells per well in 96-well plates in a total volume of 100 μl of Gibco RPMI 1640+L-glutamine (PAA Laboratories) supplemented with 20% FBS gold with increasing concentrations of compounds for 48 h. […] Viability was measured using CellTiter-Blue Cell Viability Assay (Promega, Madison, Wis., USA) following the instructions of the manufacturers. Experiments with primary cells were done in triplicates, IC50 values were calculated from the mean values of all samples used in the various experiments using GraphPad Prism 5 software. […]

The test system of a further assay is OCI-Ly7. Kind of assay: Viability test on OCI-Ly7 cells, 48 h. Format: cell-based, human. The following applies: 48 h incubation; nd = no significant cytotoxic activity up to 100 μM. As to the method: JURKAT and CCRF-CEM (T-cell acute lymphoblastic leukemia), HL60 and K562 representing acute and chronic myeloid leukemia, respectively, the chronic lymphocytic leukemia cell line MEC-1, and the diffuse large B-cell lymphoma cell line U-2940 were cultured in Gibco RPMI 1640+GlutaMAX (Life Technologies, Carlsbad, Calif., USA) supplemented with 10% fetal bovine serum gold (FBS gold; PAA Laboratories, Pasching, Austria) and 1% PenStrep (100 U/ml penicillin and 100 μg/ml streptomycin; PAA Laboratories), and maintained at 37° C. in humidified atmosphere with 5% CO2. The diffuse large B-cell lymphoma cell line OCI-LY7 was cultured in Gibco IMDM+GlutaMAX and 25 mM HEPES (Life Technologies) containing 20% FBS gold and 1% PenStrep.
All experiments with hematological cell lines were done using phenol red-free RPMI 1640+L-glutamine (PAA Laboratories) supplemented with 1% PenStrep and 10% FBS gold, except experiments with OCI-Ly7 which were carried out in Gibco IMEM+GlutaMAX and 25 mM HEPES containing 20% FBS gold and 1% PenStrep. Cells were incubated in triplicates with increasing concentrations of the compounds for 48 h, changes in viability were determined using the cell proliferation and cytotoxicity assays EZ4U (Biomedica Group, Austria) and CellTiter-Blue Cell Viability Assay (Promega, Madison, Wis., USA) following instructions of the manufacturers. IC50 values were calculated from two independent experiments using GraphPad Prism 5 software.
Initially, compounds were biologically tested in six concentration steps (0.1 μM; 1 μM; 5 μM; 10 μM; 50 μM; and 100 μM) using the CellTiter-Blue Cell Viability Assay (Promega, Madison, Wis., USA) and an incubation time of 48 hours. […] IC50 values were calculated from at least two independent experiments with 3 replicates each. In order to evaluate the biologic activity of the new compounds, cytotoxicity was compared to that of fludarabine, an already approved drug for the treatment of various B-cell malignancies. […] Differences in IC50 values for the different cell types can be explained by the biological and genetic particularities of each subtype of B-cell Non-Hodgkin lymphoma (Stacchini A et al. Leukemia Res 1999, 23, 127-136; Sambade C et al. Int J Cancer 2006, 118, 555-563; Chang H et al. Leukemia lymphoma 1995, 19, 165-171; Tweeddale M E et al. Blood 1987, 69, 1307-1314; Tweeddale M et al. Blood 1989, 74, 572-578).

The subject of assay [2] is PBMC of CLL patients cultured over a layer of mouse fibroblast cells (M2-10B4). Description: Viability of CLL cells in co-culture with M2-10B4 fibroblast cells. Format: cell-based. The following applies: Homo sapiens, M210B4, 48 h. As to the method:
Primary cells were incubated at a density of 300,000 cells per well in 96-well plates in a total volume of 100 μl of Gibco RPMI 1640+L-glutamine (PAA Laboratories) supplemented with 20% FBS gold with increasing concentrations of compounds for 48 h. For co-culture experiments, 150,000 M2-10B4 mouse fibroblast cells were seeded into 12-well plates and allowed to form a confluent layer over night. Supernatant was replaced by 3 million primary cells in a total volume of 1 ml medium and incubated with increasing concentrations of compounds for 48 h. Viability was measured using CellTiter-Blue Cell Viability Assay (Promega, Madison, Wis., USA) following the instructions of the manufacturers. Experiments with primary cells were done in triplicates, IC50 values were calculated from the mean values of all samples used in the various experiments using GraphPad Prism 5 software.
As a last step, it has been sought to evaluate the cytotoxicity of compound 15 in primary cells and compare its activity to the impact of fludarabine. To this end, peripheral blood mononuclear cells (PBMC) of chronic lymphocytic leukemia (CLL) patients were used in two experimental settings. They were cultured in conventional suspension culture being exposed to increasing concentrations of drug. […]

In assay [3] the test system is PBMC of healthy individuals. Kind of assay: Viability of healthy donor cells in suspension culture. Format: cell-based. The following applies: Homo sapiens, 48 h, read-out: IC50 HD Suspension.
Excerpt: as §1, §2

On to `CCOc1ccccc1C(=O)/C=C/c1cc2ccccc2[nH]1` [Compound 15, 1-(2-Ethoxyphenyl)-3-(1H-indole-2-yl)-2-propen-1-one], for which the IC50 in assay [1] amounted to 1180 nM; in the assay with OCI-Ly7 it was 2900 nM; in assay [2], 680 nM; in assay [3], 13600 nM.

For orientation: IC50 means the midpoint of a concentration-inhibition curve.
